In ChEMBL document CHEMBL1201862, “PubChem BioAssay data set” (2004):
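Where inhibition never reached the appropriate level, the endpoint shown equals the highest concentration tested. Otherwise, values were interpolated linearly from a five-concentration, 48-hour dose response in 96-well plates. GI50: concentration for 50% inhibition of growth.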 The source made the active and inactive calls. No stated cut-off is given here; in the data, active = GI50 up to about 1.1 µM and inactive = higher. Where a SMILES comes first, the peptide text is derived from it. [ ]: non-standard residue; d: D form. The star is where a group is joined. ξ: configuration not given here. NMeF = CN[C@@H](Cc1ccccc1)C(=O)O; NMeV = CN[C@H](C(=O)O)C(C)C; ξNMeN = CNC(CC(N)=O)C(=O)O; NMeA = CN[C@@H](C)C(=O)O; ξNMeV = CNC(C(=O)O)C(C)C; Boc = CC(C)(C)OC(=O)*

What was measured:
Assay in all cases: NCI tumour cell line growth inhibition, 48 h
SNB-78 = test system: SNB-78
HOP-18 = test system: HOP-18
KM-20L2 = test system: KM-20L2
DLD-1 = test system: DLD-1
DMS-273 = test system: DMS-273
XF498 = test system: XF498
LXFL 529 = test system: LXFL 529
DMS-114 = test system: DMS-114
RXF 631 = test system: RXF 631

| SMILES | GI50 (SNB-78) | GI50 (HOP-18) | GI50 (KM-20L2) | GI50 (DLD-1) | GI50 (DMS-273) | GI50 (XF498) | GI50 (LXFL 529) | GI50 (DMS-114) | GI50 (RXF 631) |
| --- | --- | --- | --- | --- | --- | --- | --- | --- | --- |
| O=C1/C(=C/c2ccc(O)c(O)c2)CCC/C1=C\c1ccc(O)c(O)c1 | 2.11 µM (inactive) | 2.81 µM (inactive) | 11.6 µM (inactive) | 2.68 µM (inactive) | 2.06 µM (inactive) | 3.13 µM (inactive) | – | – | – |
| Oc1cc(-c2ccccc2)c2ccccc2n1 | – | 23.6 µM (inactive) | – | 56 µM (inactive) | 60.5 µM (inactive) | – | 34.2 µM (inactive) | 12.7 µM (inactive) | – |
| [N-]=[N+]=Nc1ccc(CCN2CCN(c3cccc(C(F)(F)F)c3)CC2)cc1I | > 100 µM (inactive) | – | 31.3 µM (inactive) | – | 72.6 µM (inactive) | – | 50 µM (inactive) | – | – |
| CCOC(=O)NN(C(=O)OCC)C(C(=O)c1ccc(Cl)cc1)=C1NCCN1 | > 100 µM (inactive) | > 100 µM (inactive) | > 100 µM (inactive) | > 100 µM (inactive) | > 100 µM (inactive) | 78.9 µM (inactive) | > 100 µM (inactive) | > 100 µM (inactive) | – |
| COc1ccccc1/N=N/C(C(=O)c1ccccc1)C(=O)c1ccccc1 | – | – | 26.3 µM (inactive) | 17.6 µM (inactive) | 16.4 µM (inactive) | 19.5 µM (inactive) | 15.5 µM (inactive) | 15.2 µM (inactive) | – |
| Cc1ccc(C)c2sc3cc(=O)ccc-3nc12 | > 100 µM (inactive) | > 100 µM (inactive) | 73.3 µM (inactive) | 45.9 µM (inactive) | 39.2 µM (inactive) | – | 37.7 µM (inactive) | 30.5 µM (inactive) | 92.9 µM (inactive) |
| CC(=O)O[C@H]1CC[C@@]2(C)C(=C/C(=N\[N+](=O)[O-])[C@H]3C4CCC([C@H](C)CCCC(C)C)[C@@]4(C)CCC32)C1 (some centres not stated) | – | – | > 100 µM (inactive) | > 100 µM (inactive) | > 100 µM (inactive) | > 100 µM (inactive) | > 100 µM (inactive) | > 100 µM (inactive) | – |
| CCOC(=O)NC(=O)c1cn(-c2ccc(CCOC(=O)NCCCCCCNC(=O)OCCc3ccc(-n4c(=O)[nH]cc(C(=O)NC(=O)OCC)c4=O)cc3)cc2)c(=O)[nH]c1=O | 58.2 µM (inactive) | > 100 µM (inactive) | > 100 µM (inactive) | > 100 µM (inactive) | > 79.8 µM (inactive) | – | 22.2 µM (inactive) | > 75.2 µM (inactive) | – |
| Cn1nc(-c2ccccc2)c(C(=O)/C=C/c2ccccc2)c(N2CCCCC2)c1=O | – | 40.8 µM (inactive) | 10.4 µM (inactive) | 9.35 µM (inactive) | 37.7 µM (inactive) | – | > 100 µM (inactive) | > 100 µM (inactive) | > 100 µM (inactive) |
| CCCCc1c2c(nc3c1CCC/C3=C\c1ccccc1)/C(=C/c1ccccc1)CCC2 | – | – | > 100 µM (inactive) | – | > 100 µM (inactive) | > 100 µM (inactive) | > 100 µM (inactive) | > 100 µM (inactive) | – |
| N#CC(NNC(=O)Cc1ccccc1)c1ccc(O)cc1 (configuration not stated) | – | > 100 µM (inactive) | – | > 100 µM (inactive) | > 100 µM (inactive) | – | > 100 µM (inactive) | > 100 µM (inactive) | – |
| COc1ccc2c(c1)c1c3n2CCNN=C3CCC1 | > 37.7 µM (inactive) | > 100 µM (inactive) | > 100 µM (inactive) | > 100 µM (inactive) | > 100 µM (inactive) | > 100 µM (inactive) | > 100 µM (inactive) | 74.6 µM (inactive) | 68.4 µM (inactive) |
| O=C(O)c1ccc(S(=O)(=O)c2ccccc2)c([N+](=O)[O-])c1 | > 100 µM (inactive) | > 100 µM (inactive) | > 100 µM (inactive) | > 100 µM (inactive) | 63.8 µM (inactive) | – | > 100 µM (inactive) | > 100 µM (inactive) | – |
| CCOC(=O)C1=C(Nc2ccc(Br)cc2)OC/C1=N\NC(=O)c1ccccc1O | 7.93 µM (inactive) | 70.5 µM (inactive) | > 60 µM (inactive) | 18 µM (inactive) | 4.69 µM (inactive) | – | 14.5 µM (inactive) | – | – |
| O=C(NC1C=Nc2ccccc2NC1=O)c1ccccc1Cl (configuration not stated) | 93.1 µM (inactive) | 48 µM (inactive) | 55.6 µM (inactive) | 59.2 µM (inactive) | 26.8 µM (inactive) | 22.2 µM (inactive) | 28.6 µM (inactive) | 16.1 µM (inactive) | 22 µM (inactive) |
| O=C(CC(=O)Nc1ccc(Cl)cc1)NNCC(=O)Nc1nc(-c2ccccc2)cs1 | > 100 µM (inactive) | > 100 µM (inactive) | 59.6 µM (inactive) | > 100 µM (inactive) | > 100 µM (inactive) | > 100 µM (inactive) | 75.7 µM (inactive) | > 100 µM (inactive) | – |
| C[Si](C)(C)C(CCCCSc1ccccc1)(Sc1ccccc1)Sc1ccccc1 | > 100 µM (inactive) | – | > 10 µM (inactive) | > 100 µM (inactive) | > 100 µM (inactive) | > 100 µM (inactive) | 78.2 µM (inactive) | > 100 µM (inactive) | > 100 µM (inactive) |
| Oc1cc(C2OCCCO2)cc(O)c1O | > 100 µM (inactive) | > 100 µM (inactive) | > 100 µM (inactive) | > 100 µM (inactive) | > 100 µM (inactive) | – | > 100 µM (inactive) | > 100 µM (inactive) | > 100 µM (inactive) |
| CC(=O)NC(CC(C)C)C(=O)NC(Cc1ccccc1)C(=S)N1CCCC1 (configuration not stated) | – | – | > 100 µM (inactive) | – | > 100 µM (inactive) | > 100 µM (inactive) | > 100 µM (inactive) | > 100 µM (inactive) | > 100 µM (inactive) |
| COC(=O)C1CCc2c1c(=O)n1c([nH]c3ccccc31)c2C#N (configuration not stated) | > 100 µM (inactive) | 2.36 µM (inactive) | > 100 µM (inactive) | > 100 µM (inactive) | > 100 µM (inactive) | > 100 µM (inactive) | > 100 µM (inactive) | > 100 µM (inactive) | – |
| CC(C)(C)c1ccc(OC2CCO2)cc1 (configuration not stated) | 49.9 µM (inactive) | > 100 µM (inactive) | 19.5 µM (inactive) | – | 34.4 µM (inactive) | – | 54.6 µM (inactive) | 39.5 µM (inactive) | – |
| COC(=O)C1C=CCC2CCCCC21N1CCCC1 (configuration not stated) | > 100 µM (inactive) | > 100 µM (inactive) | 83.2 µM (inactive) | > 100 µM (inactive) | > 100 µM (inactive) | – | 81.5 µM (inactive) | 36.1 µM (inactive) | > 100 µM (inactive) |
| COc1cc(/C=C\c2ccccn2)cc(OC)c1OC | > 100 µM (inactive) | > 100 µM (inactive) | 71.4 µM (inactive) | > 100 µM (inactive) | 75 µM (inactive) | 16.2 µM (inactive) | 70.5 µM (inactive) | 45.6 µM (inactive) | > 100 µM (inactive) |
| O=c1cnn2c(n1)sc1ccc3ccccc3c12 | > 100 µM (inactive) | > 100 µM (inactive) | > 100 µM (inactive) | > 100 µM (inactive) | > 100 µM (inactive) | > 100 µM (inactive) | > 100 µM (inactive) | > 100 µM (inactive) | – |
| CC(C)NC(C)Cc1ccccc1 (configuration not stated) | > 100 µM (inactive) | > 100 µM (inactive) | > 100 µM (inactive) | > 100 µM (inactive) | > 100 µM (inactive) | – | > 100 µM (inactive) | > 100 µM (inactive) | > 100 µM (inactive) |
| CCC(=O)N/N=C(\C=C\c1cccc(O)c1)c1sc(Nc2ccc(C)cc2[N+](=O)[O-])nc1C | > 100 µM (inactive) | > 100 µM (inactive) | > 100 µM (inactive) | 43.6 µM (inactive) | > 100 µM (inactive) | – | > 100 µM (inactive) | > 100 µM (inactive) | – |
| COC(=O)/C(C)=C(/CCC1(C)OCCO1)O[Si](C)(C)C | > 100 µM (inactive) | > 100 µM (inactive) | > 100 µM (inactive) | > 100 µM (inactive) | > 100 µM (inactive) | > 100 µM (inactive) | > 100 µM (inactive) | > 100 µM (inactive) | – |
| COC(=O)[C@H](C)N(C)C(=O)C(CC(N)=O)N(C)C(=O)[C@H](Cc1ccccc1)N(C)C(=O)[C@@H]1CCCN1C(=O)[C@H](C(C)C)N(C)C(=O)C(C(C)C)N(C)C(=O)[C@@H](NC(=O)OC(C)(C)C)C(C)C (some centres not stated) (Boc-V[ξNMeV][NMeV]P[NMeF][ξNMeN][NMeA]-OMe) | 50.6 µM (inactive) | – | 39.2 µM (inactive) | 43.7 µM (inactive) | 55.5 µM (inactive) | 26.7 µM (inactive) | 24.2 µM (inactive) | 16.8 µM (inactive) | – |
| C[C@H]1C/C=C/[C@H]2[C@@H]3O[C@]3(C)[C@@H](C)[C@H]3[C@H](Cc4ccccc4)NC(=O)[C@]32OC(=O)O/C=C/[C@@](C)(O)C1=O [CYTOCHALASIN E] | 0.0189 µM (active) | – | 0.0248 µM (active) | – | 0.091 µM (active) | 0.0183 µM (active) | – | 0.0548 µM (active) | – |
